Test results as given in patent publication US8815909B2, “Diaminocyclohexane compounds and uses thereof” (Bristol-Myers Squibb Company, priority 2011, dated 2014).
Counter-ions that a name gives are not always drawn.

target: T1, human Y4 receptor (Homo sapiens, UniProt P50391); experiment: NPY4 cAMP HTRF Agonist Assay (inhibitory cAMP assay, Gi activation by Y4 agonism); assay type: cell-based; conditions: human Y4 stable CHO clonal cells, forskolin + IBMX; read-out: NPY4 cAMP HTRF Agonist Assay EC50
T1 construct: expressed in transfected cells
T1 sequence (P50391 whole entry): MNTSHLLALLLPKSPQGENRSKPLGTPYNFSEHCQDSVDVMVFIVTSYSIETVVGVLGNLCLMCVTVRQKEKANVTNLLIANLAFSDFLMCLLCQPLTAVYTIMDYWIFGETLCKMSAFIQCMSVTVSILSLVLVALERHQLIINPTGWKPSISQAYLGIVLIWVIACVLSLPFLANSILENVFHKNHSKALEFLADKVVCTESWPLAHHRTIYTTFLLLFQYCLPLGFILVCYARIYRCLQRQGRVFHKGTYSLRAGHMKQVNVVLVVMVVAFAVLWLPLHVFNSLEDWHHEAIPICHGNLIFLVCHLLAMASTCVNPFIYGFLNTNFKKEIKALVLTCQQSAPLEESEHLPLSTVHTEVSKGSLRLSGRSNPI
Protocol: NPY4 cAMP HTRF Agonist Assay
The functionality of the compound at Y4 receptor was analyzed using a inhibitory cAMP assay (CISBIO, HTRF cAMP kit #62AM4PEC) to measure the Gi activation by Y4 agonism.
The human Y4 stable CHO clonal cells were maintained in culture medium (F-12 containing 10% Fetal Bovine Serum, […] GENETICIN®, […] Zeocin). Before the experiment, 5 μL of 1 uM Forskolin (Sigma, # F6886) and 100 uM IBMX (Sigma, # I5879) in PBS buffer were added into 384-well plates (PE, Proxi-plate) that were pre-dotted with 100 nL compounds. The cells were removed from the flasks by Cellstripper, counted and adjusted to 1.0×10^6 cells/mL in PBS buffer, and added 5 μL/well (5000 cells/well) into the above 384-well plates. The cells were then covered and incubated for 30 minutes at room temperature. After incubation, 5 μL/well of D2-conjugate in HTRF lysis buffer was first added, followed by adding 5 μL/well of anti-cAMP Cryptate in HTRF lysis buffer. The plates were incubated for another 1 hour at room temperature and read on the EnVision Multilabel Plate Reader.
Compounds described herein were tested in the above assay.

Row | EC50 [nM] | SMILES
1 | 2510 | N#Cc1ccc(N2CCC[C@H](N[C@@H]3CCCC[C@H]3Nc3noc(-c4ccccc4)n3)C2)cc1 [Example 41]
2 | 45 | N#Cc1ccc(N2CCC[C@H](N[C@@H]3CCCC[C@H]3Nc3ncc(-c4ccccc4)s3)C2)cc1 [Example 42, 4-((S)-3-((1R,2R)-2-(5-Phenylthiazol-2-ylamino)cyclohexylamino)piperidin-1-yl)benzonitrile]
3 | 18 | N#Cc1ccc(N2CCC[C@H](N[C@@H]3CCCC[C@H]3Nc3cc(-c4ccc(OC(F)F)cc4)ccn3)C2)cc1 [Example 43, 4-((S)-3-((1R,2R)-2-(4-(4-(Difluoromethoxy)phenyl)pyridin-2-ylamino)cyclohexylamino)piperidin-1-yl)benzonitrile tris-trifluoroacetate]
4 | 50 | N#Cc1ccc(N2CCC[C@H](N[C@@H]3CCCC[C@H]3Nc3cc(-c4ccc(F)cc4)ccn3)C2)cc1 [Example 44, 4-((S)-3-((1R,2R)-2-(4-(4-Fluorophenyl)pyridin-2-ylamino)cyclohexylamino)piperidin-1-yl)benzonitrile tris-trifluoroacetate]
5 | 19 | N#Cc1ccc(N2CCC[C@H](N[C@@H]3CCCC[C@H]3Nc3cc(-c4ccc(O)cc4)ccn3)C2)cc1 [Example 45, 4-((S)-3-((1R,2R)-2-(4-(4-Hydroxyphenyl)pyridin-2-ylamino)cyclohexylamino)piperidin-1-yl)benzonitrile tris-trifluoroacetate]
6 | 208 | N#Cc1ccc(N2CCC[C@H](N[C@@H]3CCCC[C@H]3Nc3cc(-c4ccc(Cl)cc4)ccn3)C2)cc1 [Example 46, 4-((S)-3-((1R,2R)-2-(4-(4-Chlorophenyl)pyridin-2-ylamino)cyclohexylamino)piperidin-1-yl)benzonitrile tris-trifluoroacetate]
7 | 34 | N#Cc1ccc(N2CCC[C@H](N[C@@H]3CCCC[C@H]3Nc3nccc(-c4ccccc4)n3)C2)cc1F [Example 47, 2-Fluoro-4-((S)-3-((1R,2R)-2-(4-phenylpyrimidin-2-ylamino)cyclohexylamino)piperidin-1-yl)benzonitrile bis-trifluoroacetate]
8 | 6 | N#Cc1ccc(N2CCC[C@H](N[C@@H]3CCCC[C@H]3Nc3ncc(-c4ccccc4)o3)C2)cc1F [Example 48, 2-Fluoro-4-((S)-3-((1R,2R)-2-(5-phenyloxazol-2-ylamino)cyclohexylamino)piperidin-1-yl)benzonitrile bis-trifluoroacetate]
9 | 2 | N#Cc1ccc(N2CCC[C@H](N[C@@H]3CCCC[C@H]3Nc3ncc(-c4ccc(OC(F)(F)F)cc4)o3)C2)cc1F [Example 49, 2-Fluoro-4-((S)-3-((1R,2R)-2-(5-(4-(trifluoromethoxy)phenyl)oxazol-2-ylamino)cyclohexylamino)piperidin-1-yl)benzonitrile bis-trifluoroacetate]
10 | 231 | N#Cc1ccc(N2CCC[C@H](N[C@@H]3CCCC[C@H]3Nc3cc(Br)ccn3)C2)cc1 [Example 50, 4-((S)-3-((1R,2R)-2-(4-Bromopyridin-2-ylamino)cyclohexylamino)piperidin-1-yl)benzonitrile]
11 | 548 | N#Cc1ccc(N2CCC[C@H](N[C@@H]3CCCC[C@H]3Nc3ncc(-c4ccccc4)o3)C2)c(F)c1 [Example 51, 3-Fluoro-4-((S)-3-((1R,2R)-2-(5-phenyloxazol-2-ylamino)cyclohexylamino)piperidin-1-yl)benzonitrile]
12 | 193 | N#Cc1ccc(N2CCC[C@H](N[C@@H]3CCCC[C@H]3Nc3ncc(-c4ccc(OC(F)(F)F)cc4)o3)C2)c(F)c1 [Example 52, 3-Fluoro-4-((S)-3-((1R,2R)-2-(5-(4-(trifluoromethoxy)phenyl)oxazol-2-ylamino)cyclohexylamino)piperidin-1-yl)benzonitrile]
13 | 95 | N#Cc1ccc(N2CCC[C@H](N[C@@H]3CCCC[C@H]3Nc3cc(-c4ccccc4)ccn3)C2)cc1 [Example 53, 4-((S)-3-((1R,2R)-2-(4-Phenylpyridin-2-ylamino)cyclohexylamino)piperidin-1-yl)benzonitrile bis-trifluoroacetate]
14 | 272 | N#Cc1ccc(N2CCC[C@H](N[C@@H]3CCCC[C@H]3Nc3nnc(-c4ccccc4)o3)C2)cc1 [Example 54, 4-((S)-3-((1R,2R)-2-(5-Phenyl-1,3,4-oxadiazol-2-ylamino)cyclohexylamino)piperidin-1-yl)benzonitrile trifluoroacetate]
15 | 463 | N#Cc1ccc(N2CCC[C@H](N[C@@H]3CCCC[C@H]3Nc3nc4ccccc4o3)C2)cc1 [Example 55, 4-((S)-3-((1R,2R)-2-(Benzo[d]oxazol-2-ylamino)cyclohexylamino)piperidin-1-yl)benzonitrile]
16 | 23 | N#Cc1ccc(N2CCC[C@H](N[C@@H]3CCCC[C@H]3Nc3ncc(-c4ccc(OC(F)(F)F)cc4)o3)C2)cc1 [Example 56, 4-((S)-3-((1R,2R)-2-(5-(4-(Trifluoromethoxy)phenyl)oxazol-2-ylamino)cyclohexylamino)piperidin-1-yl)benzonitrile]
17 | 25 | N#Cc1ccc(N2CCC[C@H](N[C@@H]3CCCC[C@H]3Nc3ncc(-c4ccccc4)o3)C2)cc1 [Example 57, 4-((S)-3-((1R,2R)-2-(5-Phenyloxazol-2-ylamino)cyclohexylamino)piperidin-1-yl)benzonitrile]
18 | 1170 | COc1ccc(-c2ccnc(N[C@@H]3CCCC[C@H]3N[C@H]3CCCN(c4ccc(C#N)cc4)C3)n2)cc1 [Example 58, 4-((S)-3-((1R,2R)-2-(4-(4-Methoxyphenyl)pyrimidin-2-ylamino)cyclohexylamino)piperidin-1-yl)benzonitrile trifluoroacetate]
19 | 297 | N#Cc1ccc(N2CCC[C@H](N[C@@H]3CCCC[C@H]3Nc3nccc(-c4ccc(OC(F)(F)F)cc4)n3)C2)cc1 [Example 59, 4-((S)-3-((1R,2R)-2-(4-(4-(Trifluoromethoxy)phenyl)pyrimidin-2-ylamino)cyclohexylamino)piperidin-1-yl)benzonitrile bis-trifluoroacetate]
20 | 500 | N#Cc1ccc(N2CCC[C@H](N[C@@H]3CCCC[C@H]3Nc3nccc(-c4ccccc4)n3)C2)cc1 [Example 60, 4-((S)-3-((1R,2R)-2-(4-Phenylpyrimidin-2-ylamino)cyclohexylamino)piperidin-1-yl)benzonitrile bis-trifluoroacetate]
21 | 861 | N#Cc1ccc(N2CCC[C@H](N[C@@H]3CCCC[C@H]3Nc3nccc(-c4cccc(OC(F)(F)F)c4)n3)C2)cc1 [Example 61, 4-((S)-3-((1R,2R)-2-(4-(3-(Trifluoromethoxy)phenyl)pyrimidin-2-ylamino)cyclohexylamino)piperidin-1-yl)benzonitrile bis-trifluoroacetate]
22 | 61 | c1ccc(-c2cnc(N[C@@H]3CCCC[C@H]3N[C@H]3CCCN(c4ccc(-n5cccn5)cc4)C3)o2)cc1 [Example 62, (1R,2R)—N1-((S)-1-(4-(1H-Pyrazol-1-yl)phenyl)piperidin-3-yl)-N2-(5-phenyloxazol-2-yl)cyclohexane-1,2-diamine trifluoroacetate]
23 | 174 | FC(F)(F)Oc1ccc(-c2cnc(N[C@@H]3CCCC[C@H]3N[C@H]3CCCN(c4ccc(-n5cccn5)cc4)C3)o2)cc1 [Example 63, (1R,2R)—N1-((S)-1-(4-(1H-Pyrazol-1-yl)phenyl)piperidin-3-yl)-N2-(5-(4-(trifluoromethoxy)phenyl)oxazol-2-yl)cyclohexane-1,2-diamine trifluoroacetate]
24 | 89 | c1ccc(-c2ccnc(N[C@@H]3CCCC[C@H]3N[C@H]3CCCN(c4ccc(-n5cccn5)cc4)C3)n2)cc1 [Example 64, (1R,2R)—N1-((S)-1-(4-(1H-Pyrazol-1-yl)phenyl)piperidin-3-yl)-N2-(4-phenylpyrimidin-2-yl)cyclohexane-1,2-diamine bis-trifluoroacetate]
25 | 62 | Cc1cnn(-c2ccc(N3CCC[C@H](N[C@@H]4CCCC[C@H]4Nc4nccc(-c5ccccc5)n4)C3)cc2)c1 [Example 65, (1R,2R)—N1-((S)-1-(4-(4-Methyl-1H-pyrazol-1-yl)phenyl)piperidin-3-yl)-N2-(4-phenylpyrimidin-2-yl)cyclohexane-1,2-diamine bis-trifluoroacetate]
26 | 1260 | Cc1cnn(-c2ccc(N3CCC[C@H](N[C@@H]4CCCC[C@H]4Nc4ncc(-c5ccc(OC(F)(F)F)cc5)o4)C3)cc2)c1 [Example 66, (1R,2R)—N1-((S)-1-(4-(4-Methyl-1H-pyrazol-1-yl)phenyl)piperidin-3-yl)-N2-(5-(4-(trifluoromethoxy)phenyl)oxazol-2-yl)cyclohexane-1,2-diamine bis-trifluoroacetate]
27 | 57 | Cc1ccn(-c2ccc(N3CCC[C@H](N[C@@H]4CCCC[C@H]4Nc4nccc(-c5ccccc5)n4)C3)cc2)n1 [Example 67, (1R,2R)—N1-((S)-1-(4-(3-Methyl-1H-pyrazol-1-yl)phenyl)piperidin-3-yl)-N2-(4-phenylpyrimidin-2-yl)cyclohexane-1,2-diamine bis-trifluoroacetate]
28 | 489 | Cc1ccn(-c2ccc(N3CCC[C@H](N[C@@H]4CCCC[C@H]4Nc4ncc(-c5ccc(OC(F)(F)F)cc5)o4)C3)cc2)n1 [Example 68, (1R,2R)—N1-((S)-1-(4-(3-Methyl-1H-pyrazol-1-yl)phenyl)piperidin-3-yl)-N2-(5-(4-(trifluoromethoxy)phenyl)oxazol-2-yl)cyclohexane-1,2-diamine bis-trifluoroacetate]
